According to patent US20060216333A1, “Methods related to the treatment of mucosal associated conditions” (priority 2003, published 2006):
Marks after values point to notes of the source that are not given here.

Key:
Assay type in all cases: in vivo, rat
rats [1] = test: Histologic examination of vaginas and vulvas, Example 10; conditions: necropsied 24 hours after treatment initiation
Procedure: (§1) Groups of 3 rats were treated as described in Example 5 and necropsied 22 hours after the devices were removed. Vaginas and vulvas were collected, fixed and processed routinely for histologic examination. Inflammation was scored as follows: 0=none, 1=minimal, 2=mild, 3=moderate, 4=severe. The values in the tables are the mean of the scores for 3 rats.
Cotton devices were prepared as described in Example 1. The devices were saturated with a solution containing 5% by weight of IRM 3 in 50/50 w/w isostearic acid/isopropyl myristate. One group of 5 rats was dosed intravaginally with the devices. The devices were removed after 2 hours. A second group of 5 rats was dosed intravaginally with 5% IRM 3 cream. The cream was washed out after 2 hours. A third group of 5 rats was dosed intravaginally with 5% IRM 3 cream but the cream was not removed. The rats were necropsied 24 hours after treatment initiation. Vaginas and vulvas were collected, fixed and processed routinely for histologic examination. The scoring system described in Example 9 was used.

MCP-1 = test: Serum and vaginal tissue MCP-1 after intravaginal dosing of rats (ELISA); conditions: for MCP-1 Tissue: vaginal tissue, per 200 mg
Procedure: (§2) In the examples below the serum and intravaginal cytokine data were obtained using the following general test method.
(§3) Rats were acclimated to collars (Lomir Biomedical, Malone, N.Y.) around the neck on two consecutive days prior to actual dosing. Rats were collared to prevent removal of the device and ingestion of the drug. Animals were then dosed intravaginally with a removable device or with […] of cream. Single dosed rats received one intravaginal dose with samples collected at various times following dosing. Blood was collected by cardiac puncture. Blood was allowed to clot briefly at room temperature and serum was separated from the clot via centrifugation. The serum was stored at −20° C. until it was analyzed for cytokine concentrations.
(§4) Following blood collection, the rats were euthanized and their vaginal tract, including the cervix, was then removed and the tissue was weighed, placed in a sealed 1.8 mL cryovial and flash frozen in liquid nitrogen. The frozen vaginal tissue sample was then suspended in 1.0 mL of RPMI medium (Celox, St. Paul, Minn.) containing 10% fetal bovine serum (Atlas, Fort Collins, Colo.), 2 mM L-glutamine, penicillin/streptomycin and 2-mercaptoethanol (RPMI complete) combined with a protease inhibitor cocktail set III (Calbiochem, San Diego, Calif.). The tissue was homogenized using a Tissue Tearor (Biospec Products, Bartlesville, Okla.) for approximately one minute. The tissue suspension was then centrifuged at 2000 rpm for 10 minutes under refrigeration to pellet the debris, and the supernatant collected and stored at −20° C. until analyzed for cytokine concentrations.
(§5) ELISA kits for rat TNF were purchased from BD PharMingen (San Diego, Calif.) and the rat MCP-1 ELISA kits were purchased from BioSource Intl. (Camarillo, Calif.).
(§6) Both kits were performed according to manufacturer's specifications. Results for both TNF and MCP-1 are expressed in pg/mL and are normalized per 200 mg of tissue. […] “Post dosing” means after treatment initiation. For example, if a device was inserted a time 0 hours and removed at 2 hours and cytokines were assayed at 4 hours, then the cytokines were assayed at 4 hours post dosing.

TNF = test: Serum and vaginal tissue TNF after intravaginal dosing of rats (ELISA); conditions: for TNF Tissue: vaginal tissue, per 200 mg
Procedure: as §2, §3, §4, §5, §6

rats [2] = test: Histologic examination of vaginas and vulvas, Example 9; conditions: removed after 2 hours, necropsied 22 hours after removal; for Vagina Erosion or ulceration / Vulva Erosion or ulceration: incidence; for Vagina Inflammation / Vulva Inflammation: mean score, 0=none to 4=severe
Procedure: Devices were prepared from either cotton as described in Example 1 or from polyurethane foam (Medisorb 100—1.25:Polysorbate 60 at 1% concentration at 1.25/1 ratio, from Lendell Manufacturing, Inc, St. Charles, Mich.). The devices were saturated with one of the following solutions: 0.1% ERM 3 in 50/50 ISA/IPM; 1.0% IRM 3 in 50/50 ISA/IPM; 3.0% IRM 3 in 50/50 ISA/IPM or with 50/50 ISA/IPM (vehicle). Rats were dosed intravaginally; the devices were removed after 2 hours. […] Cytokines were assayed at 4 hours post dosing. The results are shown in the table below where each value is the mean of the values for 3 rats.
as §1

[3] = incidence, cotton device 5% removed after 2 hours
[4] = 2 hr post dose, 5% in 50/50 ISA/IPM, cotton pellet device removed after 2 hours, Example 7
[5] = 4 hours post dosing, 0.1% in 50/50 ISA/IPM, cotton device removed after 2 hours, Example 5
[6] = 4 hours post dosing, 0.1% in 50/50 ISA/IPM, foam device removed after 2 hours, Example 5
[7] = 4 hours post dosing, 1.0% in 50/50 ISA/IPM, cotton device removed after 2 hours, Example 5
[8] = 4 hours post dosing, 1.0% in 50/50 ISA/IPM, foam device removed after 2 hours, Example 5
[9] = 4 hours post dosing, 3.0% in 50/50 ISA/IPM, cotton device removed after 2 hours, Example 5
[10] = 4 hours post dosing, 3.0% in 50/50 ISA/IPM, foam device removed after 2 hours, Example 5
[11] = 4 hr post dose, 5% in 50/50 ISA/IPM, cotton pellet device removed after 2 hours, Example 7
[12] = 6 hr post dose, 5% in 50/50 ISA/IPM, cotton pellet device removed after 2 hours, Example 7

Question: Which Vagina - erosion (rats [1]; [3]) does the source give for `CC(C)Cn1cnc2c(N)nc3cccnc3c21` [IRM 3, 1-(2-methylpropyl)-1H-imidazo[4,5-c][1,5]naphthyridin-4-amine] here?
Answer: 0/5

Question: What about the Vagina - ulceration (rats [1]; [3]) of the same molecule?
Answer: 0/5

Question: And the Vulva - preulcer (rats [1]; [3])?
Answer: 3/5

Question: What about the Vulva - ulceration (rats [1]; [3]) of the same molecule?
Answer: 0/5

Question: What about the “Vagina - Inflammation” value (rats [1]; mean score, 0=none to 4=severe, cotton device 5% in 50/50 ISA/IPM removed after 2 hours) of the same molecule?
Answer: 3.1

Question: What about the “Vulva - Inflammation” value (rats [1]; mean score, 0=none to 4=severe, cotton device 5% removed after 2 hours) of the same molecule?
Answer: 1.7

Question: What about the “MCP-1 Serum” value (MCP-1; [4]) of the same molecule?
Answer: 95 pg/mL

Question: And the “MCP-1 Serum” value (MCP-1; [5])?
Answer: 72 pg/mL

Question: And the “MCP-1 Serum” value (MCP-1; [6])?
Answer: 77 pg/mL

Question: What about the “MCP-1 Serum” value (MCP-1; [7]) of the same molecule?
Answer: 111 pg/mL

Question: What about the “MCP-1 Serum” value (MCP-1; [8]) of the same molecule?
Answer: 86 pg/mL

Question: What about the “MCP-1 Serum” value (MCP-1; [9]) of the same molecule?
Answer: 79 pg/mL

Question: What about the “MCP-1 Serum” value (MCP-1; [10]) of the same molecule?
Answer: 105 pg/mL

Question: And the “MCP-1 Serum” value (MCP-1; [11])?
Answer: 114 pg/mL

Question: And the “MCP-1 Serum” value (MCP-1; [12])?
Answer: 171 pg/mL

Question: And the “MCP-1 Tissue” value (MCP-1; [4])?
Answer: 815 pg/mL

Question: What about the “MCP-1 Tissue” value (MCP-1; [5]) of the same molecule?
Answer: 179 pg/mL

Question: What about the “MCP-1 Tissue” value (MCP-1; [6]) of the same molecule?
Answer: 143 pg/mL

Question: What about the “MCP-1 Tissue” value (MCP-1; [7]) of the same molecule?
Answer: 468 pg/mL

Question: And the “MCP-1 Tissue” value (MCP-1; [8])?
Answer: 279 pg/mL

Question: What about the “MCP-1 Tissue” value (MCP-1; [9]) of the same molecule?
Answer: 402 pg/mL

Question: And the “MCP-1 Tissue” value (MCP-1; [10])?
Answer: 351 pg/mL

Question: What about the “MCP-1 Tissue” value (MCP-1; [11]) of the same molecule?
Answer: 1260 pg/mL

Question: And the “MCP-1 Tissue” value (MCP-1; [12])?
Answer: 840 pg/mL

Question: And the “TNF Serum” value (TNF; [4])?
Answer: 4 pg/mL

Question: What about the “TNF Serum” value (TNF; [5]) of the same molecule?
Answer: 0 pg/mL

Question: What about the “TNF Serum” value (TNF; [6]) of the same molecule?
Answer: 0 pg/mL

Question: What about the “TNF Serum” value (TNF; [7]) of the same molecule?
Answer: 0 pg/mL

Question: What about the “TNF Serum” value (TNF; [8]) of the same molecule?
Answer: 0 pg/mL

Question: And the “TNF Serum” value (TNF; [9])?
Answer: 0 pg/mL

Question: And the “TNF Serum” value (TNF; [10])?
Answer: 0 pg/mL

Question: What about the “TNF Serum” value (TNF; [11]) of the same molecule?
Answer: 3 pg/mL

Question: And the “TNF Serum” value (TNF; [12])?
Answer: 5 pg/mL

Question: What about the “TNF Tissue” value (TNF; [4]) of the same molecule?
Answer: 809 pg/mL

Question: What about the “TNF Tissue” value (TNF; [5]) of the same molecule?
Answer: 108 pg/mL

Question: What about the “TNF Tissue” value (TNF; [6]) of the same molecule?
Answer: 85 pg/mL

Question: And the “TNF Tissue” value (TNF; [7])?
Answer: 173 pg/mL

Question: What about the “TNF Tissue” value (TNF; [8]) of the same molecule?
Answer: 148 pg/mL

Question: What about the “TNF Tissue” value (TNF; [9]) of the same molecule?
Answer: 175 pg/mL

Question: And the “TNF Tissue” value (TNF; [10])?
Answer: 302 pg/mL

Question: And the “TNF Tissue” value (TNF; [11])?
Answer: 608 pg/mL

Question: What about the “TNF Tissue” value (TNF; [12]) of the same molecule?
Answer: 114 pg/mL

Question: And the “Vagina Erosion or ulceration” value (rats [2]; cotton device 0.1%)?
Answer: 0/3

Question: And the “Vulva Erosion or ulceration” value (rats [2]; cotton device 0.1%)?
Answer: 0/3

Question: And the “Vagina Erosion or ulceration” value (rats [2]; cotton device 1.0%)?
Answer: 0/3

Question: What about the “Vulva Erosion or ulceration” value (rats [2]; cotton device 1.0%, tissue from 1 rat not assessable) of the same molecule?
Answer: 0/2*

Question: What about the “Vagina Erosion or ulceration” value (rats [2]; cotton device 3.0%) of the same molecule?
Answer: 0/3

Question: What about the “Vulva Erosion or ulceration” value (rats [2]; cotton device 3.0%) of the same molecule?
Answer: 0/3

Question: What about the “Vagina Erosion or ulceration” value (rats [2]; foam device 0.1%) of the same molecule?
Answer: 0/3

Question: And the “Vulva Erosion or ulceration” value (rats [2]; foam device 0.1%)?
Answer: 0/3

Question: And the “Vagina Erosion or ulceration” value (rats [2]; foam device 1.0%)?
Answer: 0/3

Question: What about the “Vulva Erosion or ulceration” value (rats [2]; foam device 1.0%) of the same molecule?
Answer: 0/3

Question: What about the “Vagina Erosion or ulceration” value (rats [2]; foam device 3.0%) of the same molecule?
Answer: 0/3

Question: And the “Vulva Erosion or ulceration” value (rats [2]; foam device 3.0%, tissue from 1 rat not assessable)?
Answer: 0/2*

Question: What about the “Vagina Inflammation” value (rats [2]; cotton device 0.1% in 50/50 ISA/IPM) of the same molecule?
Answer: 1.0

Question: What about the “Vulva Inflammation” value (rats [2]; cotton device 0.1%) of the same molecule?
Answer: 0.33

Question: And the “Vagina Inflammation” value (rats [2]; cotton device 1.0% in 50/50 ISA/IPM)?
Answer: 2.5

Question: And the “Vulva Inflammation” value (rats [2]; cotton device 1.0%)?
Answer: 0.5

Question: What about the “Vagina Inflammation” value (rats [2]; cotton device 3.0% in 50/50 ISA/IPM) of the same molecule?
Answer: 3.17

Question: What about the “Vulva Inflammation” value (rats [2]; cotton device 3.0%) of the same molecule?
Answer: 2.17

Question: What about the “Vagina Inflammation” value (rats [2]; foam device 0.1% in 50/50 ISA/IPM) of the same molecule?
Answer: 2.17

Question: What about the “Vulva Inflammation” value (rats [2]; foam device 0.1%) of the same molecule?
Answer: 0.33

Question: And the “Vagina Inflammation” value (rats [2]; foam device 1.0% in 50/50 ISA/IPM)?
Answer: 2.83

Question: And the “Vulva Inflammation” value (rats [2]; foam device 1.0%)?
Answer: 0.33

Question: And the “Vagina Inflammation” value (rats [2]; foam device 3.0% in 50/50 ISA/IPM)?
Answer: 2.5

Question: What about the “Vulva Inflammation” value (rats [2]; foam device 3.0%) of the same molecule?
Answer: 1.75
